Source: paper PMC7465669, “Screening of Heteroaromatic Scaffolds against Cystathionine Beta-Synthase Enables Identification of Substituted Pyrazolo[3,4-c]Pyridines as Potent and Selective Orthosteric Inhibitors” (Molecules, 2020)

Target: T1, cystathionine β-synthase (CBS) (Homo sapiens, UniProt P35520)
T1 construct: full-length human CBS, GST-fusion
T1 sequence (P35520 1-551): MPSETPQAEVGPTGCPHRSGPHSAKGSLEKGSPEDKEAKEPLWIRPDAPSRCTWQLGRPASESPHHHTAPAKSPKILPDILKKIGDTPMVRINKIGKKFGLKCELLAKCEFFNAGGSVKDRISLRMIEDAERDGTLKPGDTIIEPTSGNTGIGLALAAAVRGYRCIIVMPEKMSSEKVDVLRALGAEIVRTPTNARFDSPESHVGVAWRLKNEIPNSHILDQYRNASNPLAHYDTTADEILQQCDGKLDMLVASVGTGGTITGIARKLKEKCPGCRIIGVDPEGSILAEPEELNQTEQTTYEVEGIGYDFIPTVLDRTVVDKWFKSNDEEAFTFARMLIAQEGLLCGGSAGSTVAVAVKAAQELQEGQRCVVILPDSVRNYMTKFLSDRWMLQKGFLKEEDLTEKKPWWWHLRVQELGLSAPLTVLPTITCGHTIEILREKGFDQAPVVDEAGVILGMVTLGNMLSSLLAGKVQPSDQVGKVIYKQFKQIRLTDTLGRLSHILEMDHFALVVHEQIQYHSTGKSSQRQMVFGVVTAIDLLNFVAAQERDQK
Test: methylene blue H2S assay, recombinant enzyme; confirmed by AzMC assay (IC50 […])
Assay type: biochemical

Question: How did the IC50 turn out when `COc1ccc(Cn2ncc3cc(Nc4ccc(N5CCN(C)CC5)cc4)nc(N4CCN(C)CC4)c32)cc1` [compound 1, 1] was run?
Answer: 11 µM
